# According to ChEMBL document CHEMBL5214919, “Discovery of Novel BRD4 Ligand Scaffolds by Automated Navigation of the Fragment Chemical Space” (J Med Chem, 2021):
# Columns and labels:
# [1] = target: T1, Bromodomain-containing protein 4 (Homo sapiens, UniProt O60885); experiment: Inhibition of BRD4 (unknown origin) expressed in Escherichia coli BL21 (DE3) using [Lys(Ac)5/8/12/16]-histone H4 (1 to 21residues)-GGK as substrate incubated for 30 mins by TR-FRET assay
# [2] = target: T1, Bromodomain-containing protein 4; experiment: Binding affinity to BRD4 (unknown origin) expressed in Escherichia coli BL21 (DE3) assessed as thermal stabilization at 10 uM by SYPRO orange dye based DSF assay
structure (smiles),measurement,setting,value
Cc1cc(Cl)ccc1O[C@H](C)c1nnc(N)s1,IC50,[1],79 µM
same,ΔTm,[2],0.8 °C
Oc1ccc(Cl)cc1Nc1ncnc2nc[nH]c12,IC50,[1],491 µM
same,ΔTm,[2],2.4 °C
CCCc1nnc(NC(=O)c2c(C)noc2C)s1,ΔTm,[2],0.9 °C
Cc1n[nH]c2nnc(N)c-2c1C,ΔTm,[2],0.9 °C
Cc1noc(C)c1CSc1nnc(C)n1N,IC50,[1],191 µM
Cc1nc(C#N)c(NCc2csnn2)o1,ΔTm,[2],3.4 °C
Cc1cc(SCc2c(C)noc2C)ncn1,IC50,[1],30 µM
same,ΔTm,[2],1.8 °C
COc1ccc(CNC(=O)CSc2nnc(N)s2)cc1,ΔTm,[2],0.9 °C
Oc1ccccc1-n1c(O)nnc1S,IC50,[1],644 µM
CCc1nnc2scc(-c3ccccc3)n12,ΔTm,[2],3.3 °C
COc1cccc(Cc2nnc(N)s2)c1,ΔTm,[2],1.6 °C
Nc1noc2c1c(=O)[nH]c1ccccc12,ΔTm,[2],3.1 °C
Cc1nonc1-c1cc2ccccc2[nH]1,ΔTm,[2],2.6 °C
Cc1nnc2n1C[C@@H](NC(=O)Cn1cnnn1)CC2,ΔTm,[2],2.9 °C
Cc1noc(C)c1C(=O)Nc1nnc(C2CC2)s1,IC50,[1],86 µM
Cc1noc(N)c1-c1ccccc1,IC50,[1],91 µM
same,ΔTm,[2],4.55 °C
